≈ marks a conversion by molar mass, not a printed value. Entries after “also recorded” stand apart in the source; their conditions may differ. Each block holds one molecule with its values, some of them ahead of it. Where a SMILES comes first, the peptide text is derived from it. Where no end group is shown, it is not given here.
Key:
trypsin [1] = assay: Proteolytic degradation by trypsin (HPLC); type: in vitro ADME; conditions: trypsin 1:50 (w/w), 100 µM peptide, 20 mM Tris-HCl pH 8.0, 37 °C, time points 1 min to 4 h; for time to complete degradation by trypsin: HPLC-UV; for time after which progressive degradation (cleavage fragment peaks) is observed with trypsin: HPLC-UV of filtered supernatant
Experimental: Lunatin–AAAE and EAAA–lunatin and their nanoparticle-functionalized counterparts (NP-Lun-EN and NP-Lun-EC) were suspended in 20 mM Tris-HCl buffer (pH 8.0) at a final peptide concentration of 100 µM and exposed to enzymatic digestion with trypsin at 37 °C, using an enzyme-to-substrate ratio of 1:50 (w/w) in a final volume of 1000 µL. Incubation was performed using an AccuBlock™ Digital Dry Bath (Ciencor),. Aliquots of 200 µL were withdrawn at different time points (1 min, 5 min, 10 min, 30 min, 1 h, 2 h, 3 h, and 4 h), and enzymatic activity was quenched by adding 40 µL of 1 M HCl. Samples were centrifugated and supernatant filtered in whatman® alumina anodisc filter discs 0.02 μm pore size, previously injected in a high-performance liquid chromatography system (Varian® ProStar 315 system equipped with a UV detector), using an Agilent AdvanceBio Peptide Mapping column (4.6 × 150 mm), and 50 µL injection loop.

trypsin [2] = assay: trypsin in 20 mM Tris-HCl buffer (pH 8.0); conditions: 37 °C, up to 4 h
[3] = test system: Acinetobacter (ATCC17978); assay: Antibacterial assay, MIC (broth microdilution, resazurin); type: cell-based; conditions: Mueller-Hinton broth, CLSI M07-A9, 1:2 serial dilution from 128.5 μM, 37 °C 20 h, resazurin read-out, triplicate; conjugates dosed as peptide concentration
Experimental: (§1) The peptide Lun-1 and the peptide-conjugated nanoparticles (Lun-EN and Lun-EC) were investigated against […] bacterial strains—Pseudomonas aeruginosa, Staphylococcus aureus, Acinetobacter, Escherichia coli, and Streptococcus agalactiae, all from American Type Culture Collection (Manassas, VA, USA). Details can be found in the SM. […]
(§2) phase at 35 °C and subsequently transferred to Mueller-Hinton broth according to the guidelines established by the M07 -A9 CLSI. Methods for the dilution antimicrobial susceptibility tests for b acteria that grow aerobically were from the Approved Standard—Ninth Edition. CLSI document M07 -A9. Wayne, PA: Clinical and Laboratory Standards Institute; 2012. Bacterial suspensions were adjusted to the turbidity equivalent to 0.5 McFarland standard ([…]), by spectrophotometric measurement at 625 nm (Bel Photonics S2000 UV, São Paulo, Brazil).
(§3) The suspension was then diluted 1:20, and 50 μL aliquots were distributed into 96-well flat-bottom microplates (Nümbrecht, Germany).
(§4) Chloramphenicol (30 μg·mL⁻¹; 92.8 μM) was used as standard drug and served as positive control for growth bacterial inhibition. Wells containing 50 μL of bacterial inoculum and 50 μL of sterile culture medium were used as negative controls. Free peptides were tested at a maximum concentration of 128.5 μM and diluted via serial dilution (1:2) up to seven times in Mueller–Hinton broth. For the nanoparticle– peptide conjugations concentration s were adjusted according to the degree of functionalization to ensure accurate dosing of the active peptide component.
(§5) Plates were incubated at 37 °C for 20 hours. After incubation, 30 μL of a 0.01% (w/v) resazurin solution (10-oxido -7 -oxophenoxazin-10 -ium -3 -olate; Sigma -Aldrich, St. Louis, MO, USA) was added to each well. Plates were protected from light and incubated for an additional 4 hours to allow colorimetric development. The tests whose bacteria did not develop a pink color after incubation (maintaining the blue coloration) were […]

[4] = test system: Escherichia coli (ATCC25922); assay: as above; type: cell-based; conditions: Mueller-Hinton broth, CLSI M07-A9, 1:2 serial dilution from 128.5 μM, 37 °C 20 h, resazurin read-out, triplicate; conjugates dosed as peptide concentration
Experimental: as §1, §2, §3, §4, §5

[5] = test system: Pseudomonas aeruginosa (ATCC27853); assay: as above; type: cell-based; conditions: Mueller-Hinton broth, CLSI M07-A9, 1:2 serial dilution from 128.5 μM, 37 °C 20 h, resazurin read-out, triplicate; conjugates dosed as peptide concentration
Experimental: as §1, §2, §3, §4, §5

[6] = test system: Staphylococcus aureus (ATCC29213); assay: as above; type: cell-based; conditions: Mueller-Hinton broth, CLSI M07-A9, 1:2 serial dilution from 128.5 μM, 37 °C 20 h, resazurin read-out, triplicate; conjugates dosed as peptide concentration
Experimental: as §1, §2, §3, §4, §5

[7] = test system: Streptococcus agalactiae (ATCC 29313); assay: as above; type: cell-based; conditions: Mueller-Hinton broth, CLSI M07-A9, 1:2 serial dilution from 128.5 μM, 37 °C 20 h, resazurin read-out, triplicate; conjugates dosed as peptide concentration
Experimental: as §1, §2, §3, §4, §5

Staphylococcus aureus = assay: Bacterial cell death kinetics (time-kill); type: cell-based; conditions: S. aureus in MH broth, 10^5 CFU·mL^−1, tested at 0.5×, 2×, 4× MIC over 12 h, triplicate
Experimental: Bacterial time-kill assays were performed in triplicate, following the methodology of ref. [43] with minor modifications. Staphylococcus aureus was cultured in Mueller–Hinton (MH) broth at an initial concentration of […] and exposed to free peptides and peptide-functionalized nanobiostructures at concentrations corresponding to 0.5×, 1×, 2×, and 4× the MIC (minimum inhibitory concentration). Samples were collected at defined time intervals: 0, 0.5, 1, 2, 4, 6, 8, 10, and 12 h. Cell viability was assessed using the microdrop method described by Romeiro (2001). Serial dilutions of the bacterial suspensions (10^−1, 10^−2, and 10^−3) were prepared, and 5 µL aliquots from each dilution were plated onto brain–heart infusion (BHI) agar. Plates were incubated for up to 12 h, after which colony counts were performed. The number of colony-forming units (UFC) was calculated by multiplying the colony count by the reciprocal of the dilution factor, and results were expressed as UFC·mL^−1. This approach provided quantitative data on the time–dependent bactericidal activity of both the free peptides and nanoparticle-conjugated formulations.

[8] = Differential scanning calorimetry of model membranes; conditions: for Tm of LUVs: 3 mM DMPC:DMPG (3:1) LUVs, 10 mM Tris-HCl pH 7.5, pure LUVs 23.1, triplicate, ± 0.2 °C
Experimental: The phase transition profile of 1,2-dimyristoyl-sn-glycero-3-phosphocholine and 1,2-dimyristoyl-sn-glycero-3-phosphocholine/1,2-dimyristoyl-sn-glycero-3-phosphoglycerol (DMPC:DMPG. 3:1, mol:mol) at 3 mM was investigated in the absence and presence of Lun-1, NP, NP-Lun-EN, and NP-Lun-EC at different concentrations (Table S1, using a VP-DSC® microcalorimeter (Malvern® Instruments, Malvern, UK). All mixtures of LUVs and peptide–LUVs were prepared immediately prior to the experiments. The samples were pre-degassed and tested against a 10 mM Tris-HCl buffer (pH 7.5) containing 50 mM NaCl in the reference cell. Buffer-only experiments were also performed in all cells for subsequent background subtraction. Each sample underwent three successive heating scans in the temperature range of 10–35 °C at a heating rate of 1.0 °C.min^−1. Data analyses were performed using Microcal Origin® DSC software version 5.0 (GE HealthCare-Microcal®, Amherst, MA, USA), which was employed to subtract the blank and determine the transition temperature (Tm) and transition enthalpy (DtransH) from the gel phase to the liquid crystalline phase.

[9] = Circular dichroism, secondary structure content; type: physicochemical; conditions: 10 mM Tris-HCl, 100 mM NaCl, pH 8.5, 25 µM peptide, 25 °C; for a-helical percentage (CD deconvolution) / β-sheet percentage (CD deconvolution): in buffer, CDpro; for α-helix content (CD deconvolution): in presence of 200 µM POPC:POPG (3:1) LUVs
Experimental: Circular dichroism spectra were recorded using a JASCO J-815 spectrometer (Easton, MD, USA) equipped with a Peltier Jasco model PTC-423 L temperature control system. Spectra were obtained using a quartz cuvette with a 1 cm optical path at a temperature of 25 °C, covering a wavelength range from 190 to 260 nm with eight consecutive scans per sample. The scan speed was set at 100 nm/min and the response time was 4 s. The bandwidth was 1 nm, and ellipticity readings were taken every 0.2 nm. The Lun-1 (25 µM), NP (0.155 mg·mL^−1), NP-Lun-EN (0.17 mg·mL^−1–25 µM of peptide concentration), and NP-Lun-EC (0.18 mg·mL^−1–25 µM of peptide concentration) samples were (corresponding to 25 µM of peptide in NP-Lun-EN and NP-Lun-EC) suspended in 10 mM Tris-HCl buffer solution at pH 8.5 containing 100 mM NaCl or in 200 µM POPC:POPG (3:1, mol:mol) LUVs suspended in the same buffer solution. Data processing and deconvolution calculations to obtain the contents of secondary structures were carried out using the CDpro® program.

Zeta potential = type: physicochemical; conditions: 0.2 mg·mL^−1 in 10 mM Tris-HCl, pH 8.0, 100 mM NaCl; 25 °C; mean of triplicate ± SD
Experimental: Zeta potential and Hydrodynamic Diameter measurements were performed at room temperature (or 25 °C) on a Zetasizer Nano instrument (Malvern® ZS model BI-900, Worcestershire, UK). A 700 µL Malvern® cuvette (model DTS1061) was used for the analysis. The measurements were conducted, utilizing monochromatic light scattering (10 mW Ne laser, λ = 632.4 nm), with the light intensity measured at a 90° angle. Zeta potential (z) were carried out at 0.2 mg·mL^−1 of NP, NP-OH, NP-NH2, NP-Lun-EN, and NP-Lun-EC dispersed in a 10 mM Tris-HCl buffer, pH 8.0, containing 100 mM NaCl.

Molecule: CC[C@H](C)[C@H](NC(=O)[C@H](Cc1ccccc1)NC(=O)[C@H](C)NC(=O)[C@H](C)NC(=O)[C@H](C)NC(=O)[C@@H](N)CCC(=O)O)C(=O)NCC(=O)NCC(=O)N[C@@H](CC(C)C)C(=O)N[C@@H](CC(C)C)C(=O)N[C@@H](CCCCN)C(=O)N[C@H](C(=O)N[C@@H](CC(C)C)C(=O)N[C@H](C(=O)N[C@@H](CO)C(=O)N[C@@H](Cc1ccccc1)C(=O)N[C@@H](Cc1ccccc1)C(N)=O)[C@@H](C)O)[C@@H](C)O [Lun-EN] (H-EAAAFIGGLLKTLTSFF-NH2)
time to complete degradation by trypsin (trypsin [1]): 10 min

Molecule: CC[C@H](C)[C@H](NC(=O)[C@@H](N)Cc1ccccc1)C(=O)NCC(=O)NCC(=O)N[C@@H](CC(C)C)C(=O)N[C@@H](CC(C)C)C(=O)N[C@@H](CCCCN)C(=O)N[C@H](C(=O)N[C@@H](CC(C)C)C(=O)N[C@H](C(=O)N[C@@H](CO)C(=O)N[C@@H](Cc1ccccc1)C(=O)N[C@@H](Cc1ccccc1)C(=O)N[C@@H](C)C(=O)N[C@@H](C)C(=O)N[C@@H](C)C(=O)N[C@@H](CCC(=O)O)C(N)=O)[C@@H](C)O)[C@@H](C)O [Lun-EC] (H-FIGGLLKTLTSFFAAAE-NH2)
time to complete degradation by trypsin (trypsin [1]): 10 min

fragment found (trypsin [2]): TLTSFF, 2 h
Molecule: EAAAFIGGLLKTLTSFF-NH2 [NP-Lun-EN]

Molecule: CC[C@H](C)[C@H](NC(=O)[C@@H](N)Cc1ccccc1)C(=O)NCC(=O)NCC(=O)N[C@@H](CC(C)C)C(=O)N[C@@H](CC(C)C)C(=O)N[C@@H](CCCCN)C(=O)N[C@H](C(=O)N[C@@H](CC(C)C)C(=O)N[C@H](C(=O)N[C@@H](CO)C(=O)N[C@@H](Cc1ccccc1)C(=O)N[C@@H](Cc1ccccc1)C(N)=O)[C@@H](C)O)[C@@H](C)O [Lun-1, lunatin-1] (H-FIGGLLKTLTSFF-NH2)
MIC [3]: 32.1 µM (≈ 46.3 µg/mL)
MIC [4]: 64.2 µM (≈ 92.6 µg/mL)
MIC [5]: 32.1 µM (≈ 46.3 µg/mL)
MIC [6]: 8.0 µM (≈ 11.5 µg/mL)
MIC [7]: 16.0 µM (≈ 23.1 µg/mL)

Molecule: NP-NtermEAAA-Lun-1 [NP-Lun-EN]
MIC [3]: did not exhibit activity
MIC [4]: 128.5 µM
MIC [5]: did not exhibit activity
MIC [6]: 64.2 µM
MIC [7]: 128.5 µM
concentrations giving sustained reduction in viable cells without regrowth (Staphylococcus aureus): 2 × MIC and 4 × MIC
Tm of LUVs ([8]; 10 µM peptide): 22.9 °C
Tm of LUVs ([8]; 25 µM peptide): 22.9 °C
Tm of LUVs ([8]; 50 µM peptide): 22.9 °C
Tm of LUVs ([8]; 100 µM peptide): 21.9 °C
a-helical percentage (CD deconvolution) [9]: 35%
β-sheet percentage (CD deconvolution) [9]: 45%
α-helix content (CD deconvolution) [9]: 40%
time after which progressive degradation (cleavage fragment peaks) is observed with trypsin (trypsin [1]): 2 h
ζ-potential (Zeta potential): +6.7 ± 0.9 mV

Molecule: EAAAFIGGLLKTLTSFF-NH2 [Lun-EN]
fragment found (trypsin [2]): TLTSFF, 1 min; also recorded: EAAAFIGGLLK, 1 min

Molecule: FIGGLLKTLTSFFAAAE-NH2 [Lun-EC]
fragment found (trypsin [2]): FIGGLLK, 1 min; also recorded: TLTSFFAAAE, 1 min

Molecule: Lun-1-AAAECterm-NP [NP-Lun-EC]
MIC [3]: 40.0 µM
MIC [4]: 48.0 µM
MIC [5]: 32.1 µM
MIC [6]: 16.0 µM
MIC [7]: 16.0 µM
Tm of LUVs ([8]; 10 µM peptide): 22.7 °C
Tm of LUVs ([8]; 25 µM peptide): 22.0/22.0 °C
Tm of LUVs ([8]; 50 µM peptide): 21.1 °C
Tm of LUVs ([8]; 100 µM peptide): 19.8 °C
lowering of transition temperature (DTm) ([8]; DMPC:DMPG (3:1) LUVs, versus pure LUVs): 3.3 °C
a-helical percentage (CD deconvolution) [9]: 30%
β-sheet percentage (CD deconvolution) [9]: 40%
α-helix content (CD deconvolution) [9]: 55%
time after which progressive degradation (cleavage fragment peaks) is observed with trypsin (trypsin [1]): 2 h
ζ-potential (Zeta potential): +5.8 ± 0.8 mV

fragment found (trypsin [2]): FIGGLLK, 2 h
Molecule: FIGGLLKTLTSFFAAAE-NH2 [NP-Lun-EC]
